Experimental data from the NIST ThermoML archive (doi:10.1021/je9005618).
Numbers after ± are expanded uncertainties.

What was measured:
[1] = refractive index (Na D-line) (dimensionless); conditions: 101.33 kPa, Liquid, Standard Abbe refractometry
[2] = 101.33 kPa, Liquid; for speed of sound: Pulse-echo method; for mass density: Vibrating tube method

| SMILES | refractive index ([1]; 288.15 K) | refractive index ([1]; 298.15 K) | refractive index ([1]; 308.15 K) | refractive index ([1]; 318.15 K) | refractive index ([1]; 328.15 K) | speed of sound ([2]; 278.15 K) [m/s] | mass density ([2]; 278.15 K) [kg/m3] | speed of sound ([2]; 288.15 K) [m/s] | mass density ([2]; 288.15 K) [kg/m3] | speed of sound ([2]; 298.15 K) [m/s] | mass density ([2]; 298.15 K) [kg/m3] | speed of sound ([2]; 308.15 K) [m/s] | mass density ([2]; 308.15 K) [kg/m3] | speed of sound ([2]; 318.15 K) [m/s] | mass density ([2]; 318.15 K) [kg/m3] | speed of sound ([2]; 328.15 K) [m/s] | mass density ([2]; 328.15 K) [kg/m3] |
| --- | --- | --- | --- | --- | --- | --- | --- | --- | --- | --- | --- | --- | --- | --- | --- | --- | --- |
| CCn1cc[n+](C)c1.O=S(=O)([O-])C(F)(F)F [1-ethyl-3-methylimidazolium trifluoromethanesulfonate] | 1.43599 ± 0.00051 | 1.4332 ± 0.00051 | 1.4304 ± 0.00051 | 1.42767 ± 0.00051 | 1.42494 ± 0.00051 | – | – | – | – | – | – | – | – | – | – | – | – |
| CC(C)=O [acetone] | 1.36146 ± 0.001 | 1.35597 ± 0.001 | 1.35054 ± 0.001 | 1.34491 ± 0.001 | – | 1256.5 ± 1.2 | 807.41 ± 0.24 | 1210.7 ± 1.2 | 796.14 ± 0.24 | 1165 ± 1.2 | 784.76 ± 0.24 | 1118.5 ± 1.2 | 773.21 ± 0.24 | 1073.7 ± 1.1 | 761.47 ± 0.24 | – | – |
| COC(C)=O [methyl ethanoate] | 1.36414 ± 0.00033 | 1.35881 ± 0.00033 | 1.35367 ± 0.00033 | 1.34823 ± 0.00033 | – | 1243.5 ± 0.81 | 953.04 ± 0.09 | 1196.8 ± 0.8 | 940.12 ± 0.1 | 1150.7 ± 0.78 | 927.01 ± 0.1 | 1104.7 ± 0.77 | 913.68 ± 0.11 | 1059.2 ± 0.75 | 900.13 ± 0.11 | – | – |
| CCOC(C)=O [ethyl acetate] | 1.37519 ± 0.00037 | 1.36994 ± 0.00037 | 1.3646 ± 0.00037 | 1.35919 ± 0.00037 | 1.35368 ± 0.00037 | 1231 ± 1.2 | 918.5 ± 0.23 | 1185.2 ± 1.2 | 906.48 ± 0.23 | 1140 ± 1.2 | 894.33 ± 0.23 | 1095.3 ± 1.2 | 882.02 ± 0.23 | 1051 ± 1.1 | 869.52 ± 0.23 | 1007.4 ± 1.1 | 856.85 ± 0.23 |
